“Also recorded” adds a separate entry of the source. One block for each compound: values may come before it.
Legend:
Format in all cases: cell-based, human
[1] = system: hESC-derived neuroepithelial cells; assay: Ventral spinal progenitor and motor neuron differentiation in suspension culture, immunocytochemistry, cell counting and FACS
Method: For motor neuron induction, hESC-derived neuroepithelial cells at day 10 were first treated with RA (0.1 μM) for caudalization in a neural medium, which consisted of DMEM/F12 (Gibco), N2 supplement, heparin (Sigma, 2 μg/ml) and cAMP (Sigma, 1 μM). One week later (day 17), the posteriorized neuroectodermal cells were isolated, and suspended in the same neural medium in the presence of RA (0.1 μM) and SHH (100-200 ng/ml; R&D, 1845-SH) for one week. After that (day 24), brain-derived neurotrophic factor (BDNF), glial-derived neurotrophic factor (GDNF) and insulin-like growth factor-1 (IGF1) (10 ng/ml, PeproTech Inc.) were added to the culture. Purmorphamine (Calbiochem) at different concentrations (0.5, 1, 2 and 5 μM) was used instead of SHH in some experiments (see Results).
Immunohistochemical staining was performed according to Zhang et al., (Zhang et al. (2001), supra). Primary antibodies used in this study included polyclonal antibodies against Olig2 (1:500, Santa Cruz), Ki67 (1:200, Zymed), Otx2 (1:2000, Chemicon) and ChAT (1:200, Chemicon). Antibodies against MNR2 or HB9 (81.5C10) (1:50), Pax7 (1:2000), Nkx2.2 (1:50) and Hoxb4 (1:50) were purchased from Developmental Studies Hybridoma Bank (DSHB, Iowa City, Iowa). Polyclonal Phox2b and Irx3 antibodies were kindly provided by Dr. Jean-François Brunet (CNRS; École Normale Supérieure, Paris) and Dr. Thomas Jessell (Columbia University; New York, N.Y.), respectively. Images were collected using a Spot digital camera mounted onto a Nikon fluorescent microscope 600 (Fryer Inc.; Huntley, Ill.) or a confocal microscope (Nikon; Tokyo, Japan).
The population of Olig2 or HB9-expressing cells among total differentiated cells (Hoechst labeled) was counted in two ways, as previously described (Li et al. (2005), supra). Six to twelve clusters in each group were counted and data were expressed as Mean ± SEM. Differences between groups were compared by ANOVA test, and the statistical significance was defined as two-sided (p=0.05).
Cells were harvested using Accutase® (Innovative Cell), gently dissociated to single cells and washed with a FACS buffer (PBS, 0.1% NaN3, 2% donkey serum). After being fixed and permeabilized with ice cold 0.1% paraformaldehyde for 10 minutes and with 90% methanol for 30 minutes, cells Were then incubated in primary antibody (Olig2, goat IgG, 1:500) or a goat IgG control at […]. Cells were then washed and incubated with a corresponding secondary antibody, such as Alexa 488 conjugated, donkey, anti-goat IgG, for 2 hours followed by washing steps. Cells were analyzed by a Becton Dickinson FACSCaliber and analyzed with CellQuest Pro (BD Biosciences).

SHH pathway = assay: RT-PCR of transcription factors in caudalized NE after 1 week of treatment
Method: Total RNA was extracted from motor neuron differentiation cultures using RNA STAT-60 (Tel-Test, Inc.; […] Carlsbad, Calif.) according to the manufacturer's protocol and was used as templates for the PCR reaction. PCR reaction was performed in a 15 μl mixture containing cDNA, primers and 1×PCR Master mix (Promega; Madison, Wis.). The following primers were used: Olig-2,[NT] ID NO:21), [NT] ID NO:22), 315 bp; […] ID NO:23), [NT] ID NO:24), 337 bp; […] ID NO:25), [NT] ID NO:26), 473 bp; […] ID NO:27), [NT] ID NO:28), 459 bp; […] ID NO:31), [NT] ID NO:32), 335 bp; GAPDH, [NT] ID NO:1), [NT] ID NO:2), 450 bp; […] ID NO:33), [NT] ID NO:34), 269 bp; […] ID NO:35), [NT] ID NO:36), 399 bp; […] ID NO:37), [NT] ID NO:38), 352 bp; and Gli1, [NT] ID NO:39), [NT] ID NO:40), 185 bp.

[2] = system: hESC-derived motor neurons; assay: Whole-cell patch-clamp of hESC-derived motor neurons, spontaneous synaptic currents; conditions: combination of D-AP5 (40 μM) and CNQX (20 μM)
[3] = system: hESC-derived neural precursors; assay: BrdU incorporation by dissociated ES cell-derived neural precursors; conditions: FGF2 20 ng/ml, EGF 20 ng/ml, LIF 5 ng/ml; each alone
Method: Histochemical and immunohistochemical staining. To better visualize the rosette formations, cultures with rosettes were rinsed with PBS and fixed in 4% paraformaldehyde and 0.25% glutaraldehyde for 1 hour. The fixed cells were then processed for embedding in plastic resin as described (Zhang et al., supra, 1999). The cultured cells were then sectioned in 1-μm thickness and stained with toluidine blue. For immunostaining, the coverslip cultures were immunostained with the following primary antibodies detected by appropriate fluorescent secondary antibodies detailed elsewhere (Zhang et al., supra, 2000; Zhang et al., supra, 1999): anti-nestin (polyclonal, gift of Dr. R. McKay of NINDS, 1:1,000); anti-polysialylated neuronal cell adhesion molecule (PSA-NCAM, mouse IgM, gift of Dr. G. Rougon of University of Marseille, France, 1:200); anti-Musashi-1 (rat IgG, gift of Dr. H. Okano, University of Tokyo, Japan, 1:500); anti-GFAP (polyclonal, Dako, 1:1,000); anti-human GFAP (Sternberg monoclonals, 1:10,000); O4 (mouse IgM, hybridoma supernatant, 1:50); anti-tyrosine hydroxylase (TH, Pel Freez, 1:500). The remaining antibodies were from Sigma: anti-βIII-tubulin (mouse IgG, 1:500); anti-neurofilament (NF) 68 (mouse IgG, 1:1,000); anti-NF 200 (polyclonal, 1:5,000); anti-MAP2ab (mouse IgG, 1:250); anti-γ-aminobutyric acid (GABA, polyclonal, 1:10,000); anti-glutamate (mouse IgG, 1:10,000). For bromodeoxyuridine (BrdU) incorporation, 4 coverslip cultures in each group were incubated with 2 μM of BrdU for sixteen hours before the cultures were fixed in 4% paraformaldehyde, denatured with 1N HCl and processed for immunolabeling and cell counting (Zhang et al., supra, 2000; Zhang et al., supra, 1999).

[4] = system: hESC-derived neuroectodermal cells; assay: Motor neuron induction in adherent culture, immunocytochemistry and HB9 cell counting
Method: hESCs (lines H1 and H9, passages 19 to 42) were cultured and passaged weekly on a feeder layer of irradiated embryonic mouse fibroblasts as described (Thomson et al., supra, 1998). The undifferentiated state of ESCs were confirmed by typical morphology and expression of Oct4 and SSEA4. For neuroectodermal differentiation, hESCs were aggregated for four days and then cultured on an adhesive plastic surface for ten days in F12/DMEM supplemented with N2, heparin (2 ng/ml), and FGF2 (20 ng/ml) or RA (Zhang et al., supra, 2001). […]
Primary antibodies used in this study included polyclonal antibodies against neuronal class III βIII-tubulin (Covance Research Products, Richmond, Calif., 1:2000), nestin (Chemicon, Temecula, Calif., 1:750), Sox1 (Chemicon, 1:1000), synapsin I (Calbiochem, Darmstadt, German, 1:500), ChAT (Chemicon, 1:50), and VAChT (Chemicon, 1:1000), Isl½ (S. Pfaff), Otx2 (F. Vaccarino), and Oig2 (M. Nakafuku). […] For identification of electrophysiologically recorded cells, biocytin (Molecular Probes) filled cells were labeled with streptavidin-FITC (sigma, 1:200) and stained for ChAT. […]
The population of HB9-expressing cells among total differentiated cells (Hoechst labeled) was counted by a person who was blind to experimental groups either manually using the Metamorph software (Universal Imaging Corporation, Downingtown, Pa.) or by stereological measurement. […]

Compound: c1ccc2c(Oc3nc(Nc4ccc(N5CCOCC5)cc4)c4ncn(C5CCCCC5)c4n3)cccc2c1 [purmorphamine]
- Time of treatment until Olig2+ cells first observed ([1]; after isolating NE cells (day 22 of hESC differentiation), a few days earlier than SHH/RA): ≤ 5 days
- Olig2+ cells (highest percentage) ([1]; purmorphamine 1 μM with RA, 3.5 weeks, confirmed by FACS): around 40%
- Olig2 expression in progenitors ([1]; purmorphamine 0.5, 1 and 2 uM in the presence of RA 0.1 μM, 3.5 weeks): robustly induced; also recorded: dose-dependent manner
- Induction of Olig2+ or HB9+ cells ([1]; purmorphamine alone (without RA) from day 17): not sufficient
- Expression of Olig2 and HB9 ([1]; purmorphamine with RA, 4.5 week): over 40%
- Olig2+ motor neuron progenitors and HB9+ motor neurons of differentiated population ([1]; purmorphamine with RA, 4.5 weeks of hESC differentiation): at least 80%
- HB9+ motor neurons also positive for ChAT ([1]; purmorphamine, attachment on coverslips and another week of differentiation): most
- Expression pattern of class II factors (Nkx6.1, Nkx2.2) compared with SHH (SHH pathway; 1 week of purmorphamine treatment): almost identical expression pattern
- mRNA for Gli1 (SHH pathway; 1 week of treatment): increased levels

Compound: N[C@H](CCCP(=O)(O)O)C(=O)O [D-AP5, D-2-amino-5-phosphonovaleric acid]
- Effect on remaining inward (excitatory) synaptic currents [2]: blocked

Compound: LIF: leukemia inhibitory factor
- BrdU incorporation (stimulation of precursor cell proliferation) [3]: could not be elicited

Compound: EGF: epidermal growth factor (NSDSECPLSHDGYCLHDGVCMYIEALDKYACNCVVGYIGERCQYRDLKWWELR; Epidermal growth factor; UniProt P01133 971-1023, looked up)
- BrdU incorporation (stimulation of precursor cell proliferation) [3]: could not be elicited

Compound: N#Cc1cc2c(cc1[N+](=O)[O-])=NC(=O)C(=O)N=2 [CNQX, 6-cyano-7-nitroquinoxaline-2,3-dione]
- Effect on remaining inward (excitatory) synaptic currents [2]: blocked

- RA dose resulting in degeneration of some cells ([4]; chemically defined adherent cultures): over 1.0 μM
Compound: CC1=C(/C=C/C(C)=C/C=C/C(C)=C/C(=O)O)C(C)(C)CCC1 [RA, retinoic acid]
- RA concentration inducing the highest proportion of HB9+ cells [4]: 0.1 to 1.0 µM

Source: patent US8153424B2, “Method of in vitro differentiation of neural stem cells, motor neurons and dopamine neurons from primate embryonic stem cells” (Wisconsin Alumni Research Foundation, priority 2001, dated 2012)
